This note sets out measurements from US10357477B2, “Anticancer compounds” (REGENTS OF THE UNIVERSITY OF MINNESOTA, priority 2016, dated 2019).

The data set in a line: Caco-2 permeability assay. As to conditions: human, pH 7.4. The data set is classed as in vitro ADME. Here is the method: Cell Culture. The human colon adenocarcinoma cell line Caco-2 was purchased from ATCC (American Type Culture Collection, Manassas, Va.), and was cultured in a humidified atmosphere of 5% CO2 at 37° C. Caco-2 cells were cultured in DMEM with 10% FBS, 1% NEAA, 1% GlutaMax and 1% penicillin and streptomycin solution. The culture medium was changed every other day during cell growth and differentiation. On achieving 80-90% confluence, the cells were rinsed with pre-warm DPBS (pH 7.4) and split using trypsin. The cells were then seeded on membranes of Millipore Millicell-24 cell culture device. The transepithelial electrical resistance (TEER) were assessed to reflect membrane integrity using a Millicells® ERS-2 (Millipore, USA). The Caco-2 cell monolayers were used for transport experiments on day 21 post-seeding with TEER values >500 Ω·cm2. Bidirectional Transport Experiments. Before the transport experiments, the cell monolayer was washed three times with HBSS. Then, the plates were incubated in fresh permeability assay buffer (HBSS containing 10 mM glucose and 20 mM HEPES, pH 7.4) at 37° C. The experiments were conducted by spiking test compounds to either the apical (AP, 0.4 mL) or basolateral side (BL, 0.8 mL), while the receiving chamber contained the corresponding volume of pre-warmed permeability assay buffer. Every experiment was repeated in duplicate, and the plates were incubated in an orbital shaker at 37° C., 50 rpm/min. To assess the drug transport, at the incubation time of 20, 40, 60 and 80 min, aliquot was removed and was immediately replenished with an equal volume of permeability assay buffer. The samples were then subjected to LC/MS/MS analysis. The apparent permeability coefficient was indicated by the absorption rate constant Papp. It could be calculated as PBA (measured in BL to AP direction) or PAB (measured in AP to BL direction), using the equation of Papp=(dQ/dt)/(A×C0). dQ/dt is the rate at which the compound appears in the receiver chamber (nmol/s), A is the surface area of the filter membrane (0.7 cm2) and C0 is the initial concentration in the donor chamber (μM). Efflux ratio (ER) was calculated by the equation of ER=PBA/PAB, where PBA is the Papp value measured in BL to AP direction, and PAB is the Papp value measured in AP to BL direction.

SMILES strings stand for the structures.

By Papp A→B is commonly meant how fast a substance crosses the layer from the apical side. The term Papp B→A denotes the apparent permeability from the basolateral to the apical side of a cell layer. In the case of `CNC(=O)c1cccc(Cn2nc(C)c(NC(=O)c3ccc(COc4ccc(C(F)(F)F)cc4)cc3)c2C)c1` [Compound D9c, 3-((3,5-Dimethyl-4-(4-((4-(trifluoromethyl)phenoxy)-methyl)benzamido)-1H-pyrazol-1-yl)methyl)-N-methylbenzamide], for the setting “apical to basolateral”, the Papp A→B at 80 min came out at 8.26 ×10⁻⁶ cm/s. For the same compound, under “basolateral to apical”, the Papp B→A at 80 min is 19.3 ×10⁻⁶ cm/s.
